Laboratory results reported in US20070254037A1 (priority 2004, published 2007).

Legend:
tumour = experiment: Rhodamine delivered directly in the tumour (slow release); format: in vivo; details: 40 or 50 mg directly in the tumour
Description: By locally delivering oxidative phosphorylation inhibitors into proliferating cells in a slow release formulation, the delivery period is prolonged i.e. the inhibitors are not cleared by the liver, and the dose received by the tumour is effectively higher than using systemic delivery. Furthemore, the lethal dose can be greatly exceeded. […] Such a dose, delivered systemically, would require 100 g of rhodamine, more than 1000 times the lethal dose. Thus, a composition comprising an oxidative phorphosrylation inhibitor in a slow release formulation increases the effective dose to the tumour and permits greater than lethal dosing.

[1] = test system: metastatic prostate cancer; details: cited from earlier work
[2] = test system: metastatic prostate cancer; experiment: Phase I clinical trial of Rhodamine 123 intra-venous infusions; format: in vivo, human; details: for a 70 kg patient
Experimental: The Huntington Medical Research Institutes are addressing this issue in metastatic prostate cancer (Lawrence W. Jones, M. D. Huntington Memorial Hospital). Recently this institute published the results of a clinical trial where 33 patients with metastatic prostate cancer were treated with Rhodamine 123 intra-venous infusions.
Because inhibitors of oxidative phorphorylation are extremely toxic to a subject in the doses needed for efficacy via the systemic route, such inhibitors have been largely overlooked for effective treatment of conditions such as cancer. […] It is also known that the maximal tolerated dose of Rhodamine 123 delivered intra-venously in man is 95 mg/m^2. For a 70 kg patient, the maximum dose of systemically delivered rhodamine is about 150 mg. […] There was an accumulation of rhodamine in the prostate of the patients, but it was not sufficient to provoke a significant response.

[3] = test system: lymphnode in the left cervical area (tonsillar carcinoma); experiment: Example 13: rods implanted in cervical lymphnode; format: in vivo, human
Experimental: A patient presents with a 10 cm diameter lymphnode located in the left cervical area. […] The patient refuses any kind of prolonged therapy. They accept a tumour implantation of a slow release drug. Fourteen 7 cm long rods of lactide-capronolactone containing rotenone, are implanted. The total dose of rotenone delivered over 2 weeks by the rods is 60 mg. […] The patient accepts radiation therapy.

right breast tumor = experiment: Example 12: rods implanted in breast tumor; format: in vivo, human
[4] = test system: metastasis in the 10th dorsal vertebra from a breast tumor; experiment: Example 14: intratumoural injection into vertebral metastasis; format: in vivo, human; details: on the next day; 20 mg as SLN in 1 ml poly(orthoesther) paste
Experimental: A person presents with metastases originating from a breast tumor operated and irradiated 3 years before. […] The patient is young and one wants to keep radiotherapy for further recurrences. They benefit from an intratumoural injection of 1 ml of polymeric paste (poly(orthoesther)), containing 20 mg of Antimycin A formulated as SLN. The paste is deposited in the center of the metastasis under fluoroscopy control. The pain drops on the next day by ⅔. […] This allows to visualize the elution rate and the melting process of the polymer, and to better follow and understand the kinetics of the treatment.
At 3 weeks the polymer has nearly totally disappeared, and the patient is sent for the injection of a cement (methylmethacrylate) inside the vertebra, under fluoroscopy. The pain disappears totally and the patient is followed up locally, ready to be treated when new metastases appear.

[5] = test system: right axillar lymphnode (recurrence of melanoma); experiment: Example 11: slow release injection into melanoma axillar lymphnode; format: in vivo, human
meningioma = experiment: Example 16: stereotactic injection into meningioma; format: in vivo, human
[6] = rodents; cited from earlier work

In the case of rhodamine, the tumour outcome (tumour) is given as “tumour death”, the “effect on prostate tumours” value ([1]; systemic, at the maximum non-lethal dose) is given as “no useful effect” and the “maximum dose of systemically delivered rhodamine” value [2] is given as “about 150 mg”.

With `C=C(C)[C@H]1Cc2c(ccc3c2O[C@@H]2COc4cc(OC)c(OC)cc4[C@@H]2C3=O)O1` [rotenone] the mass size ([3]; initially 10 cm, 6 weeks after rods delivering 60 mg over 2 weeks) was 5.5 cm and the lymphnode outcome ([3]; new implantation with 30 mg plus radiation dose of 50 Gy) was “totally disappears”.

Work on sodium arsenate yielded a tumor diameter (right breast tumor; after second session, 3 rods, total dose 30 mg) of 3 cm and a tumor diameter (right breast tumor; initially 6 cm, 2 months after four rods with 10 mg each) of 4 cm.

For Antimycin A, the drop of pain [4] was “⅔”.

In the case of `O=C(O)CF` [fluoroacetate], the remaining induration size ([5]; 6 months later, after additional 6 sessions of radiotherapy at 5 Gy) is reported as 1 cm, the lymphnode size ([5]; initially 5 cm, 1 month after 4 mg fluoroacetate slow release) is reported as 3 cm and the “lesion finding on MRI” value (meningioma; MRI two months after 4 mg in poly(ortho)ester) is reported as “partial necrosis”. For the same compound, the “tumour necrosis on histological examination” value (meningioma; after surgical intervention) was 80% and the lesion size (meningioma; initially 3 cm, MRI two months after 4 mg in poly(ortho)ester) was 2.5 cm.

For rhodamine 123, the “LD10 (the dose which kills 10% of animals)” value [6] is given as 20 mg/kg, the tumour response ([1]; 33 patients with metastatic prostate cancer, intra-venous infusions) is given as “no significant tumour response” and the PSA change ([1]; 33 patients with metastatic prostate cancer, intra-venous infusions, in some cases) is given as “slight PSA reduction”. For the same compound, the maximal tolerated dose ([1]; delivered intra-venously in man) was 95 mg/m^2.
